Measured values reported in ChEMBL document CHEMBL1157269, “Antineoplastic agents. 551. Isolation and structures of bauhiniastatins 1-4 from Bauhinia purpurea” (2006).
Converted amounts (≈) assume the structure as drawn.

Columns and labels:
Format in all cases: functional
P388 = assay: Growth inhibition of mouse P388 cells
BXPC-3 = assay: Growth inhibition of human BXPC3 cells
MCF7 = assay: Growth inhibition of human MCF7 cells
SF-268 = assay: Growth inhibition of human SF268 cells
NCI-H460 = assay: Growth inhibition of human NCI-H460 cells
KM-20L2 = assay: Growth inhibition of human KM20L2 cells
DU-145 = assay: Growth inhibition of human DU145 cells

Structure (SMILES) | GI50 (P388) [µg/mL] | GI50 (BXPC-3) [µg/mL] | GI50 (MCF7) [µg/mL] | GI50 (SF-268) [µg/mL] | GI50 (NCI-H460) [µg/mL] | GI50 (KM-20L2) [µg/mL] | GI50 (DU-145) [µg/mL]
COc1c(C)c(=O)c2oc3cccc(O)c3ccc=2c1=O [BAUHINIASTATIN 1] | 0.65 (≈ 2.29 µM) | 7 (≈ 24.6 µM) | 4.1 (≈ 14.4 µM) | 2.4 (≈ 8.44 µM) | 6.6 (≈ 23.2 µM) | > 10 | > 10
COc1cc2c(c(O)c1C)Oc1c(O)ccc(OC)c1C=C2 [BAUHINIASTATIN 3] | 15.7 (≈ 52.3 µM) | 6.6 (≈ 22 µM) | 3.2 (≈ 10.7 µM) | 5.8 (≈ 19.3 µM) | 6.1 (≈ 20.3 µM) | > 10 | 5.8 (≈ 19.3 µM)
COc1c(C)c(O)c2c(c1OC)C=Cc1c(O)cccc1O2 [BAUHINIASTATIN 2] | 23.2 (≈ 77.3 µM) | 3.8 (≈ 12.7 µM) | 3.1 (≈ 10.3 µM) | 3.2 (≈ 10.7 µM) | 3.5 (≈ 11.7 µM) | > 10 | 3.8 (≈ 12.7 µM)
O=c1[nH]cc(F)c(=O)[nH]1 [FLUOROURACIL] | 0.073 (≈ 0.561 µM) | – | – | – | – | – | –
COc1c(C)c(O)cc2c1Oc1cccc(O)c1C=C2 [BAUHINIASTATIN 4] | 61.5 (≈ 228 µM) | – | – | – | – | – | –
COc1cc2c(c(O)c1C)Oc1cccc(O)c1C=C2 [PACHARIN] | 15.5 (≈ 57.3 µM) | 4.3 (≈ 15.9 µM) | 2.3 (≈ 8.51 µM) | 3.1 (≈ 11.5 µM) | 4.2 (≈ 15.5 µM) | > 10 | 3.3 (≈ 12.2 µM)
